Where “and” joins values, the source holds several entries; their conditions need not be identical. Identical values can stand only once.
Experiments:
5'-GMP = assay: Kinetic 5'-GMP assay (1H NMR, rate of reaction of platinum complex with 5'-GMP); assay type: biochemical; settings: D2O, pH 7, 25°C; for Rate constant for the reaction of 5'-GMP with the platinum(II) complex: excess platinum, fitted first order in each reactant
Experimental: The reaction of each platinum compound with 5'-GMP (Acros) was monitored using ^1H NMR spectroscopy to observe the disappearance of the H8 signal of the unreacted 5'-GMP at ≈8 ppm and the appearance of a product signal ≈0.5–1.0 ppm downfield of the unreacted 5'-GMP. The reaction was conducted with excess platinum compound present in each case. A 10 mM solution of 5'-GMP and a 10–20 mM solution of the platinum(II) compound were prepared separately in D2O. The pH (uncorrected for the effects of deuterium) of each solution was adjusted to 7, and the samples were equilibrated to 25°C in a water bath. Aliquots of the two solutions were combined and placed in an NMR tube; typically, the final concentrations of platinum was 5–18 mM and the concentration of 5'-GMP was 1 mM (except for the [Pt(dien)Cl]^+ reaction, where it was 0.5 mM). Samples were maintained at 25°C throughout the NMR experiment. The H8 resonances were integrated and the data was fitted to an equation that was first order in each reactant using DynaFit to determine rate constants. At least two runs were conducted for each platinum compound using fresh samples.

[1] = system: A549 lung cancer cell line; assay: MTT cellular viability assay, A549; assay type: cell-based; settings: 72 hours, ± standard deviation
Experimental: (§1) Cell lines were obtained from American Type Culture Collection (ATCC, Manassas, VA). […] Caco-2 (ATCC: HTB-37) colorectal cancer was grown in EMEM with 20% FBS and 1% penicillin/streptomycin. All cell lines were incubated at 37°C in 5% CO2 with passaging every 4–7 days. Cell culture media and supplements were obtained from ATCC, Atlanta Biologicals (Flowery Branch, GA), Mediatech (Tewksbury, MA), Fisher Scientific (Waltham, MA), Gibco (Gaithersburg, MD) and Sigma-Aldrich.
(§2) The MTT (3-(4,5-dimethylthiazol-2-yl)-2,5-diphenyltetrazolium bromide) cellular viability assay was performed in all three cancer cell lines and the non-cancer cell line. Following a protocol adapted from, cells were seeded at 5,000 cells per well in 96-well plates and incubated at 37°C in 5% CO2 in F-12K Medium or EMEM with FBS supplementation and 1% penicillin/streptomycin for 24 hours. Then, wells were treated in replicates of six according to a concentration series (500, 50, 5, 0.5, 0.05 μM) of specific platinum complexes for 72 hours. A negative control (media only), positive control (Triton X-100) and series of blanks were simultaneously performed. The MTT assay was run for 2 hours, then well contents were rapidly evacuated out and all wells were treated with MTT solubilization solution [10% Triton X-100 in acidic (0.1N HCl) isopropanol] for 15 minutes before the plates were read using a BioTek Synergy HT microplate plate reader (570 nm and 690 nm absorbance wavelengths). Reagents, cell culture media and supplements were obtained from ATCC, Atlanta Biologicals, Mediatech, Fisher Scientific, Gibco and Sigma-Aldrich.
(§3) GraphPad Prism v6 (La Jolla, CA) was used for all statistical analysis. Nuclear fraction platinum uptake as a total percent of combined nuclear and cytosolic uptake was analyzed using a one-way ANOVA (Brown-Forsyth test; p ≤ 0.05). IC50 values were calculated in Prism using the sigmoidal, 4PL, x is log(concentration) analysis feature or were calculated from Prism derived values using the equation y = mx + b. MTT assay standard deviation values were calculated using ED50plus v1.0 online software. AEP threshold data were analyzed by two-way ANOVA (Dunnett’s multiple comparisons test; p ≤ 0.05) and hair cell quantification data by two-way ANOVA (Tukey’s multiple comparisons test; p ≤ 0.05). AEP temporary threshold shifts (TTS) were calculated by subtracting the mean vehicle threshold for each frequency from each treatment threshold. TTS data were averaged across frequencies for each treatment and were analyzed by one-way ANOVA (Tukey’s multiple comparisons test; p ≤ 0.05).

[2] = system: Caco-2 colorectal cancer cell line; assay: MTT cellular viability assay, Caco2; assay type: cell-based; settings: 72 hours, ± standard deviation
Experimental: as §1, §2, §3

[3] = system: U-138 MG (HTB-16) glioblastoma cancer cell line; assay: MTT cellular viability assay, HTB16; assay type: cell-based; settings: HTB16 (glioma), 72 hours, ± standard deviation
Experimental: as §1, §2, §3

[4] = system: IMR-90 lung fibroblast control cell line; assay: MTT cellular viability assay, IMR90; assay type: cell-based; settings: IMR90 (fibroblast, non-cancer), 72 hours, ± standard deviation
Experimental: as §1, §2, §3

[5] = system: zebrafish hearing thresholds; assay: Auditory evoked potential (AEP) testing in zebrafish inner ear model; assay type: in vivo, Danio rerio; settings: 25 mg/kg i.p.; for AEP hearing threshold, significance of pairwise comparison against cisplatin / AEP hearing threshold, significance of pairwise comparison against vehicle: 48 h
Experimental: (§4) Zebrafish (Danio rerio) were purchased from a commercial supplier (Segrest Farms, Gibsonton, FL) and maintained in the animal facility of Western Kentucky University according to a protocol approved by the Institutional Animal Care and Use Committee. All zebrafish used in this study were a mix of male and female adult animals at least 6 months of age and were maintained according to standard methods.
(§5) After injection, fish were returned to holding tanks for either 24 or 48 hours and then subjected to hearing tests followed by hair cell quantification analysis.
Auditory evoked potential (AEP) testing was performed on individual fish according to standard protocols. […] After harness placement was complete, three 27 gauge stainless steel electrodes (Rochester Electro-Medical, Inc., Lutz, FL) were inserted approximately 2 mm subdermally to record AEPs. A reference electrode was inserted into the medial dorsal surface of the head, a recording electrode directly over the brainstem and a ground electrode in the tail musculature. Sound stimuli (tone pips) were presented to each fish at 8 frequencies (100, 250, 400, 600, 800, 1000, 1500 and 3000 Hz) and AEP waveforms were collected using a TDT System III physiology apparatus (Tucker-Davis Technologies Inc., Alachua, FL) running SigGen and BioSig software. Auditory stimuli were passed through a P1000 power amplifier (Hafler, Port Coquitlam, BC) and presented with a University Sound UW-30 underwater speaker (Electro-Voice, Fairport, NY). Sound pressure levels were confirmed using a Type 10CT hydrophone (G.R.A.S., Holte, Denmark) placed adjacent to the mesh harness. Auditory thresholds were determined in 5 dB increments by visual inspection of AEP waveforms.
as §3

[6] = system: zebrafish saccule hair cells; assay: Hair cell quantification, saccule; assay type: in vivo, Danio rerio; settings: 5, 25, 50, 75% regions, 25 mg/kg i.p., 48 hours
Experimental: as §4, §5
Hair cell counts were performed from specific regions of the zebrafish saccule and utricle using established procedures. […] Prior to dissection, heads were rinsed three times for 10 minutes each at room temperature in phosphate buffer (pH 7.4, LabChem, Pittsburgh, PA) and the inner ear epithelia (saccule and utricle) were then carefully dissected out and trimmed. […] Tissue samples were then placed on glass slides and nuclei were labelled with Prolong Gold antifade reagent (4’,6-diamidino-2-phenylindole [DAPI], Life Technologies, Carlsbad, CA) and a cover-slip was placed over the samples for microscopy.
Saccule and utricle samples were viewed through the FITC filter of a Zeiss Axioplan2 epifluorescence microscope (Carl Zeiss, Jena, Germany) at 20X magnification and were then photographed using an AxioCam MRm camera. Cell counts were made from four regions of the saccule (5%, 25%, 50%, 75%) along the rostral-caudal length of the organ by placing a 50 μm x 50 μm box at each location and using the microscope cell counter feature. In the utricular samples, cell counts were made from three equidistant 50 μm x 50 μm boxes in both the extrastriolar and striolar regions.
as §3

## [NH3+][Pt-2]([NH3+])([Cl])[n+]1ccccc1 (stereo not shown) [Pyriplatin, pyriplatin]
5'-GMP
  Relative rate (rate constant divided by the rate constant for [Pt(dien)Cl]^+): 0.073
  Rate constant for the reaction of 5'-GMP with the platinum(II) complex: 2.9 (+/- 0.7) x 10^−2 M^-1s^-1
5'-GMP; listed as pyriplatin
  Rate constant for the reaction of 5'-GMP with the platinum(II) complex: 2.9 ± 0.7 x 10^−2 M^-1s^-1
[1]
  IC50: 89.28 ± 0.46 µM
[2]
  IC50: 20.9 ± 0.69 µM
[3]
  IC50: 66.3 ± 0.74 µM
[4]
  IC50: 16.1 ± 1.13 µM
[5]; 48 hours, vehicle threshold subtracted
  mean (± S.E.) temporary threshold shift (TTS), averaged across frequencies: 6 dB and 6.2 ± 2.1 dB
[5]; 100 Hz
  AEP hearing threshold, significance of pairwise comparison against cisplatin: ns (ns, p > 0.05)
  AEP hearing threshold, significance of pairwise comparison against vehicle: * (* p ≤ 0.05)
[5]; 250 Hz
  AEP hearing threshold, significance of pairwise comparison against cisplatin: ns (ns, p > 0.05)
  AEP hearing threshold, significance of pairwise comparison against vehicle: ns (ns, p > 0.05)
[5]; 400 Hz
  AEP hearing threshold, significance of pairwise comparison against cisplatin: ns (ns, p > 0.05)
  AEP hearing threshold, significance of pairwise comparison against vehicle: ns (ns, p > 0.05)
[5]; 600 Hz
  AEP hearing threshold, significance of pairwise comparison against cisplatin: ns (ns, p > 0.05)
  AEP hearing threshold, significance of pairwise comparison against vehicle: ns (ns, p > 0.05)
[5]; 800 Hz
  AEP hearing threshold, significance of pairwise comparison against cisplatin: ns (ns, p > 0.05)
  AEP hearing threshold, significance of pairwise comparison against vehicle: ns (ns, p > 0.05)
[5]; 1000 Hz
  AEP hearing threshold, significance of pairwise comparison against cisplatin: ns (ns, p > 0.05)
  AEP hearing threshold, significance of pairwise comparison against vehicle: ns (ns, p > 0.05)
[5]; 1500 Hz
  AEP hearing threshold, significance of pairwise comparison against cisplatin: * (* p ≤ 0.05)
  AEP hearing threshold, significance of pairwise comparison against vehicle: ns (ns, p > 0.05)
[5]; 3000 Hz
  AEP hearing threshold, significance of pairwise comparison against cisplatin: ns (ns, p > 0.05)
  AEP hearing threshold, significance of pairwise comparison against vehicle: ns (ns, p > 0.05)
[6]
  effect on hair cell density in four regions of the saccule compared to vehicle: no hair cell reduction
